Peptide text beside a SMILES is read from it.
Columns and labels:
hippocampal neurons [1] = type: cell-based, rat
hippocampal neurons [2] = type: cell-based, rat; remark: listed apart in the source
hippocampal neurons [3] = type: cell-based, rat; remark: listed apart in the source
hippocampal neurons [4] = type: cell-based, rat; remark: listed apart in the source
[5] = in vivo; cited from earlier work
[6] = test system: primary hippocampal neurons; test: Block of β1-40 neuronal toxicity by Substance P and analogs (therapeutic efficacy); type: cell-based, rat

Compound | % Trophic Response (hippocampal neurons [1]) | neurotrophic activity / early neuronal survival (in words) (hippocampal neurons [1]) | % Toxic Response (hippocampal neurons [2]) | neurotoxic activity / late neuronal survival (in words) (hippocampal neurons [2]) | reversal of early trophic response to β1-40 (hippocampal neurons [3]) | reversal of late toxic response to β1-40 (hippocampal neurons [4]) | Therapeutic Efficacy (%): ability to block neuronal toxicity of β1-40 [6] [%] | further results
CC[C@H](C)[C@H](NC(=O)[C@H](Cc1ccccc1)NC(=O)[C@H](C)NC(=O)[C@H](CC(=O)O)NC(=O)[C@H](CCCCN)NC(=O)[C@H](CO)NC(=O)[C@@H]1CCCN1C(=O)[C@@H]1CCC(=O)N1)C(=O)NCC(=O)N[C@@H](CC(C)C)C(=O)N[C@@H](CCSC)C(N)=O [Eledoisin] (HELM PEPTIDE1{[Glp].P.S.K.D.A.F.I.G.L.M.[am]}$$$$V2.0) | 0 ± 11 | no effect on early or late neuronal survival | 0 ± 6 | no effect on early or late neuronal survival | did not show significant effects | did not show significant effects |  | 
CSCC[C@H](NC(=O)[C@H](CC(C)C)NC(=O)CNC(=O)[C@H](Cc1ccc(O)cc1)NC(=O)[C@H](Cc1ccccc1)NC(=O)[C@H](CCCCN)NC(=O)[C@H](CC(N)=O)NC(=O)[C@@H]1CCCN1C(=O)[C@H](CC(=O)O)NC(=O)[C@H](C)NC(=O)[C@@H]1CCC(=O)N1)C(N)=O [Physalaemin] (HELM PEPTIDE1{[Glp].A.D.P.N.K.F.Y.G.L.M.[am]}$$$$V2.0) | 0 ± 4% | no effect on early or late neuronal survival | 0 ± 7% | no effect on early or late neuronal survival | almost completely reversed | almost completely reversed |  | 
CSCC[C@H](NC(=O)[C@H](CC(C)C)NC(=O)CNC(=O)[C@H](Cc1ccccc1)NC(=O)[C@H](Cc1ccccc1)NC(=O)[C@H](CCC(N)=O)NC(=O)[C@H](CCC(N)=O)NC(=O)[C@@H]1CCCN1C(=O)[C@H](CCCCN)NC(=O)[C@@H]1CCCN1C(=O)[C@@H](N)CCCN=C(N)N)C(N)=O [Substance P] |  |  |  |  |  |  |  | crossing of the blood-brain barrier [5]: known to cross the blood-brain barrier
CSCC[C@H](NC(=O)[C@H](CC(C)C)NC(=O)CNC(=O)[C@H](Cc1ccccc1)N(C)C(=O)[C@H](Cc1ccccc1)NC(=O)[C@H](CC(=O)O)NC(=O)CCC(=O)O)C(N)=O [[Succinyl-Asp^6, Me-Phe^8]-Sub P (6-11)] (HELM PEPTIDE1{[O=C(O)CCC(=O)[*:2]].D.F.[meF].G.L.M.[am]}$$$$V2.0) |  |  |  |  |  |  | 47 | 
CSCC[C@H](NC(=O)[C@H](CC(C)C)NC(=O)CNC(=O)[C@@H](NC(=O)[C@H](Cc1ccccc1)NC(=O)[C@H](CCC(N)=O)NC(=O)[C@H](CC(=O)O)NC(=O)[C@H](CO)NC(=O)[C@H](CCCCN)NC(=O)[C@@H]1CCCN1C(=O)[C@@H](NC(=O)[C@@H](N)CC(=O)O)C(C)C)C(C)C)C(N)=O [kassinin] (H-DVPKSDQFVGLM-NH2) |  |  |  |  | did not show significant effects | did not show significant effects |  | 
CC(C)C[C@H](NC(=O)[C@H](CC(C)C)NC(=O)[C@@H](Cc1c[nH]c2ccccc12)NC(=O)[C@H](Cc1ccccc1)NC(=O)[C@@H](Cc1c[nH]c2ccccc12)NC(=O)[C@H](CCC(N)=O)NC(=O)[C@H](CCC(N)=O)NC(=O)[C@@H]1CCCN1C(=O)[C@H](CCCCN)NC(=O)[C@@H]1CCCN1C(=O)[C@H](N)CCCNC(=N)N)C(N)=O [spantide, [D-Arg^1, D-Trp^7,9, Leu^11]-substance P] (HELM PEPTIDE1{[dR].P.K.P.Q.Q.[dW].F.[dW].L.L.[am]}$$$$V2.0) | 120 ± 8% | significant early neurotrophic and late neurotoxic effects | 118 ± 10% | significant early neurotrophic and late neurotoxic effects |  |  |  | 
Sub P, Free Acid |  |  |  |  |  |  | 53 | 
Sub P, Methyl Ester |  |  |  |  |  |  | 71 | 

— patent US5876948A (priority 1991, dated 1999)
